The results in this text go back to patent publication US20040266811A1, “Methods for inducing regeneration, remyelination, and hypermyelination of nervous tissue” (priority 2002, published 2004).

Assay [1] has as its target T1, recombinant FKBP52 (Homo sapiens, UniProt Q02790).
T1 construct: other: QTFS, 18° C., unit not given; dissociation constant (kd) for FKBP52 by QTFS; other: QTFS; fused on or other part: probably GST at the N-terminus (pGEX-6p), as in b91 and the GST-alone control of b31
T1 sequence (Q02790 1-459): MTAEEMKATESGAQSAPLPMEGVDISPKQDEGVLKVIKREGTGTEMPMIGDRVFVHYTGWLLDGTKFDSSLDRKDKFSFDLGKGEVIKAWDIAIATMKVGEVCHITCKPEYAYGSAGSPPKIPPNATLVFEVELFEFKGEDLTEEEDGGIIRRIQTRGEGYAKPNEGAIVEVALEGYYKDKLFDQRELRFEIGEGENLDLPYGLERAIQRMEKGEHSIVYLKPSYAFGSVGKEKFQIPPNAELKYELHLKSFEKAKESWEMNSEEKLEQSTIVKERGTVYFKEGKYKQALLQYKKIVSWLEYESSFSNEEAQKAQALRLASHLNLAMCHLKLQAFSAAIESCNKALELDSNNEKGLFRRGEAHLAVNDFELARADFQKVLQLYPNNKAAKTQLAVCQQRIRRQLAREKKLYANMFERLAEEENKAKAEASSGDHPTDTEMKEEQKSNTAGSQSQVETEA
As to the kind of experiment: Tryptophan fluorescence (QTFS) binding to recombinant FKBP52.

Assay [2] relates to purified sensory neurons from DRG. In words: Neurite outgrowth in purified (neuron-enriched) sensory neuron cultures. In kind it is cell-based, E18 C57B1/6 mice. The following applies: 1 μM GM-284, 6 days. The method, then:
To generate neuron-enriched DRG cultures, DRGs were isolated from embryonic (E18) C57B1/6 mice, and processed in dissection media containing Hank's CMF saline, with 0.05% collagenase and 0.25% trypsin, for 30 min at 37° C. Neurons were obtained by trituration of ganglia with fire-polished Pasteur pipettes of decreasing diameter. Thereafter, the cellular suspension was washed twice in Dulbecco's modified Eagle medium supplemented with 10% fetal calf serum and 2% glucose. Freshly triturated neurons were incubated in 10% FCS-DMEM supplemented with 5-fluorouracil (Sigma, F-0503) and uridine (Sigma, U3003) for 48 h to remove non-neuronal proliferating cells, in the presence of either 100 ng/ml NGF or 1 μM GM-284. After 48 h, cultures were continued with these agents, but without mitotic inhibitors, for an additional 6 days.
DRG explants are complex tissues, containing both Schwann cells and neurons. Accordingly, it is possible that GM-284 acts to promote neurite outgrowth directly, by acting on neurons, or indirectly, by acting on adjacent Schwann cells, which then act to promote neuritogenesis. To differentiate these possibilities, sensory neurons from DRG were purified as described (Wood et al., Studies of the initiation of myelination by Schwann cells. Ann. NY Acad. Sci., 605:1-14, 1990), and contaminating Schwann cells were removed by treatment of the cultures with anti-mitotic drugs.

Assay [3] deals with PC12 cells co-cultured on monolayers of Schwann cells. As to the kind of experiment: GFP-PC12 / Schwann cell co-culture neurite outgrowth. Type of assay: cell-based, Sprague-Dawley rats (Schwann cells). The following applies: GM-284, 48 h. The method, then:
Wild-type and TrkA-overexpressing PC12 cells (Hempstead et al., Overexpression of the trk tyrosine kinase rapidly accelerates nerve growth factor-induced differentiation. Neuron, 9:883-96, 1992) were maintained in DMEM supplemented with 10% calf serum and 5% horse serum, the latter of which was also supplemented with 200 μg/ml G418 to maintain TrkA selection. Cultures were treated with 100 ng/ml NGF or the immunophilin ligands, or treated with Schwann-cell-conditioned medium supplemented with 5% horse serum, as indicated below. To generate GFP-expressing PC12 cells, a bicistronic pCX-bsr retroviral vector (Escalante et al., Phosphorylation of c-Crk II on the negative regulatory Tyr222 mediates nerve growth factor-induced cell spreading and morphogenesis. J. Biol. Chem., 275:24787-797, 2000), which drives expression of green fluorescent protein (GFP), was used to infect dividing PC12 cells.
GFP-expressing virus was produced by lipofectamine-mediated transfection of 1.0 μg of pCX-bsr DNA, together with 1.0 μg of pC-Eco retroviral DNA, into the Bosc23 replication-incompetent ecotropic packaging line (Retromax™, Imgen), according to the manufacturer's protocols. The transfection medium was replaced with 10 ml of DMEM containing 10% fetal calf serum, for 24 h, and then collected and frozen at −70° C. The cells were re-fed with fresh DMEM (10 ml), and maintained for an additional 16 h. […]

pKd: −log10 of the molar value. Entries after “also recorded” stand apart in the source; their conditions may differ.

Broadly, the pKd is −log10 of the Kd, conventionally taken in molar units. As for `CCC(C)(C)C(=O)C(=O)N1CCC[C@H]1c1nnc([C@@H]2CCCN2C(=O)C(=O)C(C)(C)CC)o1` [GM-284], the “disassociation constant (kd), binding affinity for recombinant FKBP52” value in assay [1] (18° C., unit not given) is 139±16.2. Besides, the pKd in assay [1] (read-out: dissociation constant (kd) for FKBP52 by QTFS) is 6.86. Also, the “neurite outgrowth in purified neuronal cultures” value in assay [2] is reported as “complete failure to elaborate processes; also recorded: failed to promote axonogenesis; also recorded: no neurite outgrowth”. Also, the “neuritogenesis of PC12 cells co-cultured with Schwann cells” value in assay [3] is “extensive neuritogenesis”.
